Source: ChEMBL document CHEMBL1144853, “Arginine binding motifs: design and synthesis of galactose-derived arginine tweezers as galectin-3 inhibitors” (J Med Chem, 2008)

Target: Galectin-3 (Homo sapiens, UniProt P17931)
Assay: Binding affinity to human galectin 3 by Fluorescence polarization assay

Galectin-3, sequence (P17931 whole entry): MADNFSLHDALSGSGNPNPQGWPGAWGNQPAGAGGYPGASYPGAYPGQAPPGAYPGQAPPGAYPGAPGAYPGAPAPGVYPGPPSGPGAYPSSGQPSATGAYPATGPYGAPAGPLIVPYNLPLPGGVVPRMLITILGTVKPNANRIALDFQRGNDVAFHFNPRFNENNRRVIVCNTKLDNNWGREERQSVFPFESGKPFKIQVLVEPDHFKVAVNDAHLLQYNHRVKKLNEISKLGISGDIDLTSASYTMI

Compound | Kd
CS[C@@H]1O[C@H](CO)[C@H](O)[C@H](NC(=O)c2ccc(C)cc2)[C@H]1O | 220 µM
CS[C@@H]1O[C@H](CO)[C@H](O)[C@H](NC(=O)c2ccc(C)cc2)[C@H]1OP(=O)(O)OCc1ccccc1 | 120 µM
CS[C@@H]1O[C@H](CO)[C@H](O)[C@H](NC(=O)c2ccc(C)cc2)[C@H]1OS(=O)(=O)O | 87 µM
CS[C@@H]1O[C@H](CO)[C@H](O)[C@H](NC(=O)c2ccc(C)cc2)[C@H]1OC(C)=O | 240 µM
CS[C@@H]1O[C@H](CO)[C@H](O)[C@H](NC(=O)c2ccc(C)cc2)[C@H]1OC(=O)c1ccccc1 | 380 µM
CS[C@@H]1O[C@H](CO)[C@H](O)[C@H](O)[C@H]1OS(=O)(=O)O | 2800 µM
CS[C@@H]1O[C@H](CO)[C@H](O)[C@H](NC(=O)c2ccc(C)cc2)[C@H]1O[PH](=O)O | 150 µM
CS[C@@H]1O[C@H](CO)[C@H](O)[C@H](O)[C@H]1O | 5900 µM
CS[C@@H]1O[C@H](CO)[C@H](O)[C@H](NC(=O)c2ccc(C)cc2)[C@H]1OP(=O)(O)O | 250 µM
